Columns and labels:
53Bp1 foci in U2OS cells [1] = assay: 53Bp1 foci formation in cells treated with DNA damaging agents, by immunofluorescence; conditions: 0.2 mM etoposide; 1 mM hydroxyurea for 1 to 25 hours
53Bp1 foci in U2OS cells [2] = assay: Effect of wortmannin or caffeine on ionizing radiation-induced 53Bp1 foci, by immunofluorescent microscopy; type: cell-based, human; conditions: 20 μM wortmannin, 1 Gy ionizing radiation, at 30 minutes
[3] = system: ionizing radiation-induced foci in U2OS cells; assay: Localization of HA-tagged 53Bp1 deletion mutants to ionizing radiation-induced foci in U2OS cells; type: cell-based, human; conditions: HA-tagged proteins expressed in U2OS cells, immunofluorescence after ionizing radiation
Source text: Stably transfected U2OS cell lines were created by transfecting the plasmid pSV2 [Chehab, N. H. et al, 1999 Proc. Natl. Acad. Sci., USA, 96:13777–13782] containing various N-terminal hemaglutinin (HA) tagged versions of 53Bp1. HA53Bp1 is the full-length protein bearing the HA tag on its N terminus. HA53Bp1ΔBRCT is similar to HA53Bp1 with amino acids 1713 to 1973 (the BRCT domains) of SEQ ID NO: 2 deleted therefrom. HA53Bp1C312 contains only the C-terminal 312 amino acids of 53Bp1, which include the nuclear localization signal (i.e., amino acids 1662 to 1701 of SEQ ID NO: 2 and the BRCT domain (amino acids 1702–1973 of SEQ ID NO: 2). The U2OS cells on cover slips were transiently transfected with the selected plasmid using the calcium phosphate method. Positively transfected colonies were pooled after selecting with neomycin. Expression was allowed to occur for 30 hours and then cells were treated, fixed, stained, and visualized as described below.
The following experiments were performed to identify the minimal focus-targeting (FT) domain of the relatively large (1972 amino acids) 53Bp1 protein [SEQ ID NO: 2]. The FT domain is the portion of the protein sequence required for targeting to ionizing radiation-induced foci. The FT domain participates in the mechanism of 53Bp1 relocalization. In addition, fragments of 53Bp1 that retain the ability to form ionizing radiation-induced foci act as dominant negative mutants by competing with endogenous 53Bp1 for localization to the IR-induced 53Bp1-binding sites.
A series of 53Bp1 deletion mutants was generated and expressed as HA-tagged proteins in U2OS cells. These cells were examined by immuno-fluorescence for their intracellular localization in response to ionizing radiation, as described in Examples 1 and 2. Nuclear localization is considered to be a prerequisite for targeting of 53Bp1 to ionizing radiation-induced foci. Therefore, all the mutants were constructed so that they retained the NLS of 53Bp1.

Row | Molecule | Ionizing Radiation-Induced Foci Localization [3] | other results
1 | NC(=O)NO [HU, hydroxyurea] | – | 53Bp1-containing foci formation in treated cells (53Bp1 foci in U2OS cells [1]): do not form
2 | COC[C@H]1OC(=O)c2coc3c2[C@@]1(C)C1=C(C3=O)[C@@H]2CCC(=O)[C@@]2(C)C[C@H]1OC(C)=O [wortmannin] | – | reduction of percentage of cells containing 53Bp1 ionizing radiation-induced foci (53Bp1 foci in U2OS cells [2]): ~50%
3 | AA residues 1–1711: 53Bp1 deletion mutant, deletion of AA residues 1712–1972 of SEQ ID NO: 2, HA-tagged | Yes | –
4 | AA residues 1–1053 and 1220–1972: 53Bp1 deletion mutant, deletion of residues 1054–1219 of SEQ ID NO: 2, HA-tagged | Yes | –
5 | AA residues 1–1053 and 1411–1972: 53Bp1 deletion mutant, deletion of residues 1054–1410 of SEQ ID NO: 2, HA-tagged | No | –
6 | full-length: full-length 53Bp1, AA residues 1–1972 of SEQ ID NO: 2, HA-tagged | Yes | –
7 | AA residues 1–34 and 1220–1711: 53Bp1 deletion mutant, deletion of residues 35–1219 and 1712–1972 of SEQ ID NO: 2, HA-tagged (protein, HA tag; human 53Bp1) MDPTGSQLDSDFSQQDTPCLIIEDSQPESQVLEDQGEEEFDMPQPPHGHVLHRHMRTIREVRTLVTRVITDVYYVDGTEVERKVTEETEEPIVECQECETEVSPSQTGGSSGDLGDISSFSSKASSLHRTSSGTSLSAMHSSGSSGKGAGPLRGKTSGTEPADFALPSSRGGPGKLSPRKGVSQTGTPVCEEDGDAGLGIRQGGKAPVTPRGRGRRGRPPSRTTGTRETAVPGPLGIEDISPNLSPDDKSFSRVVPRVPDSTRRTDVGAGALRRSDSPEIPFQAAAGPSDGLDASSPGNSFVGLRVVAKWSSNGYFYSGKITRDVGAGKYKLLFDDGYECDVLGKDILLCDPIPLDTEVTALSEDEYFSAGVVKGHRKESGELYYSIEKEGQRKWYKRMAVILSLEQGNRLREQYGLGPYEAVTPLTKAADISLDNLVEGKRKRRSNVSSPATPTASSSSSTTPTRKITESPRASMGVLSGKRKLITSEEERSPAKRGRKSATVKPGAVGAGEFVSPCESGDNTGE | Yes | –
8 | AA residues 1661–1972: 53Bp1 deletion mutant, deletion of residues 1–1660 of SEQ ID NO: 2, HA-tagged (protein, HA tag; human 53Bp1) MGVLSGKRKLITSEEERSPAKRGRKSATVKPGAVGAGEFVSPCESGDNTGEPSALEEQRGPLPLNKTLFLGYAFLLTMATTSDKLASRSKLPDGPTGSSEEEEEFLEIPPFNKQYTESQLRAGAGYILEDFNEAQCNTAYQCLLIADQHCRTRKYFLCLASGIPCVSHVWVHDSCHANQLQNYRNYLLPAGYSLEEQRILDWQPRENPFQNLKVLLVSDQQQNFLELWSEILMTGGAASVKQHHSSAHNKDIALGVFDVVVTDPSCPASVLKCAEALQLPVVSQEWVIQCLIVGERIGFKQHPKYKHDYVSH | No | –
9 | AA residues 1–34 and 1047–1972: 53Bp1 deletion mutant, deletion of residues 35–1046 of SEQ ID NO: 2, HA-tagged (protein, HA tag; human 53Bp1) MDPTGSQLDSDFSQQDTPCLIIEDSQPESQVLEDEARSEDPPTTPIRGNLLHFPSSQGEEEKEKLEGDHTIRQSQQPMKPISPVKDPVSPASQKMVIQGPSSPQGEAMVTDVLEDQKEGRSTNKENPSKALIERPSQNNIGIQTMECSLRVPETVSAATQTIKNVCEQGTSTVDQNFGKQDATVQTERGSGEKPVSAPGDDTESLHSQGEEEFDMPQPPHGHVLHRHMRTIREVRTLVTRVITDVYYVDGTEVERKVTEETEEPIVECQECETEVSPSQTGGSSGDLGDISSFSSKASSLHRTSSGTSLSAMHSSGSSGKGAGPLRGKTSGTEPADFALPSSRGGPGKLSPRKGVSQTGTPVCEEDGDAGLGIRQGGKAPVTPRGRGRRGRPPSRTTGTRETAVPGPLGIEDISPNLSPDDKSFSRVVPRVPDSTRRTDVGAGALRRSDSPEIPFQAAAGPSDGLDASSPGNSFVGLRVVAKWSSNGYFYSGKITRDVGAGKYKLLFDDGYECDVLGKDILLCDPIPLDTEVTALSEDEYFSAGVVKGHRKESGELYYSIEKEGQRKWYKRMAVILSLEQGNRLREQYGLGPYEAVTPLTKAADISLDNLVEGKRKRRSNVSSPATPTASSSSSTTPTRKITESPRASMGVLSGKRKLITSEEERSPAKRGRKSATVKPGAVGAGEFVSPCESGDNTGEPSALEEQRGPLPLNKTLFLGYAFLLTMATTSDKLASRSKLPDGPTGSSEEEEEFLEIPPFNKQYTESQLRAGAGYILEDFNEAQCNTAYQCLLIADQHCRTRKYFLCLASGIPCVSHVWVHDSCHANQLQNYRNYLLPAGYSLEEQRILDWQPRENPFQNLKVLLVSDQQQNFLELWSEILMTGGAASVKQHHSSAHNKDIALGVFDVVVTDPSCPASVLKCAEALQLPVVSQEWVIQCLIVGERIGFKQHPKYKHDYVSH | Yes | –
10 | AA residues 1–34 and 1411–1711: 53Bp1 deletion mutant, deletion of residues 35–1410 and 1712–1972 of SEQ ID NO: 2, HA-tagged (protein, HA tag; human 53Bp1) MDPTGSQLDSDFSQQDTPCLIIEDSQPESQVLEDTRETAVPGPLGIEDISPNLSPDDKSFSRVVPRVPDSTRRTDVGAGALRRSDSPEIPFQAAAGPSDGLDASSPGNSFVGLRVVAKWSSNGYFYSGKITRDVGAGKYKLLFDDGYECDVLGKDILLCDPIPLDTEVTALSEDEYFSAGVVKGHRKESGELYYSIEKEGQRKWYKRMAVILSLEQGNRLREQYGLGPYEAVTPLTKAADISLDNLVEGKRKRRSNVSSPATPTASSSSSTTPTRKITESPRASMGVLSGKRKLITSEEERSPAKRGRKSATVKPGAVGAGEFVSPCESGDNTGE | No | –
11 | AA residues 1–34 and 1047–1711: 53Bp1 deletion mutant, deletion of residues 35–1046 and 1712–1972 of SEQ ID NO: 2, HA-tagged (protein, HA tag; human 53Bp1) MDPTGSQLDSDFSQQDTPCLIIEDSQPESQVLEDEARSEDPPTTPIRGNLLHFPSSQGEEEKEKLEGDHTIRQSQQPMKPISPVKDPVSPASQKMVIQGPSSPQGEAMVTDVLEDQKEGRSTNKENPSKALIERPSQNNIGIQTMECSLRVPETVSAATQTIKNVCEQGTSTVDQNFGKQDATVQTERGSGEKPVSAPGDDTESLHSQGEEEFDMPQPPHGHVLHRHMRTIREVRTLVTRVITDVYYVDGTEVERKVTEETEEPIVECQECETEVSPSQTGGSSGDLGDISSFSSKASSLHRTSSGTSLSAMHSSGSSGKGAGPLRGKTSGTEPADFALPSSRGGPGKLSPRKGVSQTGTPVCEEDGDAGLGIRQGGKAPVTPRGRGRRGRPPSRTTGTRETAVPGPLGIEDISPNLSPDDKSFSRVVPRVPDSTRRTDVGAGALRRSDSPEIPFQAAAGPSDGLDASSPGNSFVGLRVVAKWSSNGYFYSGKITRDVGAGKYKLLFDDGYECDVLGKDILLCDPIPLDTEVTALSEDEYFSAGVVKGHRKESGELYYSIEKEGQRKWYKRMAVILSLEQGNRLREQYGLGPYEAVTPLTKAADISLDNLVEGKRKRRSNVSSPATPTASSSSSTTPTRKITESPRASMGVLSGKRKLITSEEERSPAKRGRKSATVKPGAVGAGEFVSPCESGDNTGE | Yes | –

Reference: patent US7217532B2, “Methods for detecting DNA damage and screening for cancer therapeutics” (The Wistar Institute of Anatomy and Biology, priority 2000, dated 2007)
